Experimental data from PubChem BioAssay AID1919009 (Molecular Pharmacology Branch, DTP, NCI, 2023).
Blank lines part the entries; values can stand above or below the compound they belong to.

System: K24384-001-R-PDC complex spheroid growth
Test: Anticancer human tumor K24384-001-R-PDC patient-derived pancreatic adenocarcinoma cell line growth inhibition [AhR]
Settings: for IC50: curve of first compound; for viability, T/C: stronger effect = lower value
Summary of the method: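 Complex tumor spheroids co-cultured with HUVEC and human MSC stroma; AhR antagonists tested in combination with standard-of-care and investigational agents. Top concentration at or near clinical Cmax (else 10 microM), half-log dilutions; growth expressed as percent test/control.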

[1] = second compound 0.1 µM, first compound 0.00949 µM
[2] = second compound 0.1 µM, first compound 0.03 µM
[3] = second compound 0.1 µM, first compound 0.0949 µM
[4] = second compound 0.1 µM, first compound 0.3 µM
[5] = second compound 0.1 µM, first compound 0.949 µM
[6] = second compound 0.1 µM, first compound 3 µM
[7] = second compound 0.316 µM, first compound 0.00949 µM
[8] = second compound 0.316 µM, first compound 0.03 µM
[9] = second compound 0.316 µM, first compound 0.0949 µM
[10] = second compound 0.316 µM, first compound 0.3 µM
[11] = second compound 0.316 µM, first compound 0.949 µM
[12] = second compound 0.316 µM, first compound 3 µM
[13] = second compound 1 µM, first compound 0.00949 µM
[14] = second compound 1 µM, first compound 0.03 µM
[15] = second compound 1 µM, first compound 0.0949 µM
[16] = second compound 1 µM, first compound 0.3 µM
[17] = second compound 1 µM, first compound 0.949 µM
[18] = second compound 1 µM, first compound 3 µM
[19] = second compound 3.16 µM, first compound 0.00949 µM
[20] = second compound 3.16 µM, first compound 0.03 µM
[21] = second compound 3.16 µM, first compound 0.0949 µM
[22] = second compound 3.16 µM, first compound 0.3 µM
[23] = second compound 3.16 µM, first compound 0.949 µM
[24] = second compound 3.16 µM, first compound 3 µM
[25] = second compound 10 µM, first compound 0.00949 µM
[26] = second compound 10 µM, first compound 0.03 µM
[27] = second compound 10 µM, first compound 0.0949 µM
[28] = second compound 10 µM, first compound 0.3 µM
[29] = second compound 10 µM, first compound 0.949 µM
[30] = second compound 10 µM, first compound 3 µM
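For viability, T/C in this document: percent of DMSO vehicle-treated spheroid viability set as 100%.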

IC50 (second compound 0.1 µM): > 3 µM
IC50 (second compound 0.316 µM): > 3 µM
IC50 (second compound 1 µM): > 3 µM
IC50 (second compound 3.16 µM): > 3 µM
IC50 (second compound 10 µM): > 3 µM
Compound: CCN(c1cc(-c2ccc(CN3CCOCC3)cc2)cc(C(=O)NCc2c(C)cc(C)[nH]c2=O)c1C)C1CCOCC1 + CC(CO)NC(=O)c1cc(-c2ccc(Cl)cc2)nn(-c2cnn(C)c2)c1=O
viability, T/C [1]: 119%
viability, T/C [2]: 125%
viability, T/C [3]: 122%
viability, T/C [4]: 107%
viability, T/C [5]: 95.4%
viability, T/C [6]: 91.8%
viability, T/C [7]: 117%
viability, T/C [8]: 135%
viability, T/C [9]: 125%
viability, T/C [10]: 120%
viability, T/C [11]: 98.2%
viability, T/C [12]: 98.9%
viability, T/C [13]: 107%
viability, T/C [14]: 139%
viability, T/C [15]: 154%
viability, T/C [16]: 144%
viability, T/C [17]: 102%
viability, T/C [18]: 90.8%
viability, T/C [19]: 122%
viability, T/C [20]: 123%
viability, T/C [21]: 113%
viability, T/C [22]: 119%
viability, T/C [23]: 113%
viability, T/C [24]: 119%
viability, T/C [25]: 117%
viability, T/C [26]: 123%
viability, T/C [27]: 118%
viability, T/C [28]: 107%
viability, T/C [29]: 99.4%
viability, T/C [30]: 102%

IC50 (second compound 0.1 µM): > 0.3 µM
IC50 (second compound 0.316 µM): > 0.3 µM
IC50 (second compound 1 µM): > 0.3 µM
IC50 (second compound 3.16 µM): > 0.3 µM
IC50 (second compound 10 µM): > 0.3 µM
Compound: Nc1ncn(C2CC(O)C(CO)S2)c(=O)n1 (stereo not given) + CC(CO)NC(=O)c1cc(-c2ccc(Cl)cc2)nn(-c2cnn(C)c2)c1=O
viability, T/C (second compound 0.1 µM, first compound 0.000949 µM): 115%
viability, T/C (second compound 0.1 µM, first compound 0.003 µM): 126%
viability, T/C [1]: 114%
viability, T/C [2]: 74.6%
viability, T/C [3]: 84.4%
viability, T/C [4]: 72.4%
viability, T/C (second compound 0.316 µM, first compound 0.000949 µM): 118%
viability, T/C (second compound 0.316 µM, first compound 0.003 µM): 130%
viability, T/C [7]: 134%
viability, T/C [8]: 88.3%
viability, T/C [9]: 98.2%
viability, T/C [10]: 69.8%
viability, T/C (second compound 1 µM, first compound 0.000949 µM): 137%
viability, T/C (second compound 1 µM, first compound 0.003 µM): 127%
viability, T/C [13]: 148%
viability, T/C [14]: 125%
viability, T/C [15]: 92.2%
viability, T/C [16]: 65.5%
viability, T/C (second compound 3.16 µM, first compound 0.000949 µM): 87.3%
viability, T/C (second compound 3.16 µM, first compound 0.003 µM): 124%
viability, T/C [19]: 119%
viability, T/C [20]: 118%
viability, T/C [21]: 92.6%
viability, T/C [22]: 76.2%
viability, T/C (second compound 10 µM, first compound 0.000949 µM): 105%
viability, T/C (second compound 10 µM, first compound 0.003 µM): 106%
viability, T/C [25]: 136%
viability, T/C [26]: 107%
viability, T/C [27]: 105%
viability, T/C [28]: 83.4%

IC50 (second compound 0.1 µM): 0.28 µM
IC50 (second compound 0.316 µM): 0.298 µM
IC50 (second compound 1 µM): 0.246 µM
IC50 (second compound 3.16 µM): 0.236 µM
IC50 (second compound 10 µM): 0.212 µM
Compound: O=C(C=Cn1cnc(-c2cc(C(F)(F)F)cc(C(F)(F)F)c2)n1)NNc1cnccn1 + CC(CO)NC(=O)c1cc(-c2ccc(Cl)cc2)nn(-c2cnn(C)c2)c1=O
viability, T/C [1]: 107%
viability, T/C [2]: 108%
viability, T/C [3]: 80.1%
viability, T/C [4]: 48.7%
viability, T/C [5]: 34.1%
viability, T/C [6]: 28.1%
viability, T/C [7]: 102%
viability, T/C [8]: 99.3%
viability, T/C [9]: 74.8%
viability, T/C [10]: 52%
viability, T/C [11]: 30.5%
viability, T/C [12]: 26.6%
viability, T/C [13]: 86.1%
viability, T/C [14]: 102%
viability, T/C [15]: 72.1%
viability, T/C [16]: 46.5%
viability, T/C [17]: 33.4%
viability, T/C [18]: 28.6%
viability, T/C [19]: 77.8%
viability, T/C [20]: 94.3%
viability, T/C [21]: 79.6%
viability, T/C [22]: 41.8%
viability, T/C [23]: 29.6%
viability, T/C [24]: 23.3%
viability, T/C [25]: 76.2%
viability, T/C [26]: 82.3%
viability, T/C [27]: 70.7%
viability, T/C [28]: 41%
viability, T/C [29]: 29.3%
viability, T/C [30]: 27.3%
